# Assay results: patent publication US10927126B2, “Positive allosteric modulators of the muscarinic acetylcholine receptor M4” (Vanderbilt University, priority 2016, dated 2021)
# Structures can show the parent of a compound that is named as a salt.
# Legend:
# [1] = similar profiles to known antipsychotic drugs, without causing catalepsy; cited from earlier work
# [2] = Alzheimer's disease patients; cited from earlier work
# [3] = patients treated with AChE inhibitor; cited from earlier work
# Human M4 = target: T1, Human M4 (Homo sapiens, UniProt P08173); experiment: mAChR M4 cell-based functional assay (calcium flux, potentiation of EC20 acetylcholine response); design: Emax: dose or concentration left out as unconfirmed
# T1 sequence (P08173 1-479): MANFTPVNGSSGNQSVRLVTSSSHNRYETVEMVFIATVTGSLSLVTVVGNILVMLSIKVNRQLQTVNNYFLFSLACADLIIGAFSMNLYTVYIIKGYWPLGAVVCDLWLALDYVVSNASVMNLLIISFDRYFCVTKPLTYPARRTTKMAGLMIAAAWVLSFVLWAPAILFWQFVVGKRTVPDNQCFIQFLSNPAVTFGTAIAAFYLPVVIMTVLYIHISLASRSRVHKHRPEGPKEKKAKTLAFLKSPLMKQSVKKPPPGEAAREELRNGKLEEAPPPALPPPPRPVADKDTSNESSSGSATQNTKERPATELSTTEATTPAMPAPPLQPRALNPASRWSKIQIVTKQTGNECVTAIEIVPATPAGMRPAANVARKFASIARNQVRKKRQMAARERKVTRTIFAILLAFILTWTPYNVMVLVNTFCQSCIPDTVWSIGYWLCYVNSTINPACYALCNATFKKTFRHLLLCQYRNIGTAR
Structure (SMILES),activity in animal models [1],"effect on psychotic behavioral symptoms such as delusions, suspiciousness, vocal outbursts, and hallucinations [2]",patients with elevated liver transaminases [3],EC50 (Human M4) [nM],Emax (Human M4) [%]
CCCCCCOc1nsnc1C1=CCCN(C)C1 [xanomeline],active in animal models,reduce psychotic behavioral symptoms,,,
Nc1c2c(nc3ccccc13)CCCC2 [tacrine],,,about 30%,,
"Cc1nnc2sc3c(NC4CC4)nccc3c2c1C [Compound 8, N-cyclopropyl-3,4-dimethyl-pyrido[4′,3′:4,5]thieno[2,3-c]pyridazin-8-amine hydrochloride]",,,,12.1,74.8
"Cc1nnc2sc3c(N4CCCC4)ncc(Cl)c3c2c1C [Compound 23, 5-Chloro-3,4-dimethyl-8-pyrrolidin-1-yl-pyrido[4′,3′:4,5]thieno[2,3-c]pyridazine Hydrochloride]",,,,351,36.5
"Cc1cc(C)c2c(n1)sc1c(NC3CCCC3)nccc12 [Compound 1, N-cyclopentyl-2,4-dimethylthieno[2,3-b: 5,4-c]dipyridin-8-amine]",,,,124,67
"COc1ccc(CNc2nccc3c2sc2nc(C)cc(C)c23)cc1F [Compound 25, N-(3-fluoro-4-methoxybenzyl)-2,4-dimethylthieno[2,3-b:5,4-c′]dipyridin-8-amine]",,,,> 10000,90.3
"Cc1nnc2sc3c(N4CCCC4)nccc3c2c1C [Compound 6, 3,4-dimethyl-8-pyrrolidin-1-yl-pyrido[4′,3′:4,5]thieno[2,3-c]pyridazine hydrochloride]",,,,23.6,73
"Cc1nnc2sc3c(NCc4ccc(C(=O)N5CCOCC5)cc4)nccc3c2c1C [Compound 13, [4-[[(3,4-dimethylpyrido[4′,3′:4,5]thieno[2,3-c]pyridazin-8-yl)amino]methyl]phenyl]-morpholino-methanone]",,,,66,81.9
"Cc1c(C(F)F)nnc2sc3c(N4CC5(COC5)C4)nccc3c12 [Compound 41, 6-(3-(difluoromethyl)-4-methylpyrido[4′,3′:4,5]thieno[2,3-c]pyridazin-8-yl)-2-oxa-6-azaspiro[3.3]heptane]",,,,1880,54.8
"Cc1cc(C)c2c(n1)sc1c(N3CCCC3)nccc12 [Compound 2, 2,4-dimethyl-8-(pyrrolidin-1-yl)thieno[2,3-b:5,4-c′]dipyridine]",,,,233,97.8
"Cc1c(Cl)nnc2sc3c(NC4CCC4)nccc3c12 [Compound 34, 3-chloro-N-cyclobutyl-4-methylpyrido[4′,3′:4,5]thieno[2,3-c]pyridazin-8-amine]",,,,23.6,91.4
